From ChEMBL document CHEMBL1201862, “PubChem BioAssay data set” (2004)
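Cultured in 96-well plates, cells were exposed to test compound for 48 hours across five concentrations. GI50: concentration for 50% inhibition of growth.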 Active and inactive are the calls of the source. No stated cut-off is given here; in the data, active = GI50 up to about 1.1 µM and inactive = higher.

How the values were obtained:
Test in all cases: NCI tumour cell line growth inhibition, 48 h
786-0 = system: 786-0
A549 = system: A549
ACHN = system: ACHN
CAKI-1 = system: CAKI-1
CCRF-CEM = system: CCRF-CEM
COLO 205 = system: COLO 205
DLD-1 = system: DLD-1
DMS-114 = system: DMS-114
DMS-273 = system: DMS-273
EKVX = system: EKVX
HCT-116 = system: HCT-116
HCT-15 = system: HCT-15
HL-60 = system: HL-60
HOP-62 = system: HOP-62
HOP-92 = system: HOP-92
HT-29 = system: HT-29
IGROV-1 = system: IGROV-1
K562 = system: K562
KM-20L2 = system: KM-20L2
KM12 = system: KM12
LOX IMVI = system: LOX IMVI
LXFL 529 = system: LXFL 529
M14 = system: M14
M19-MEL = system: M19-MEL
MOLT-4 = system: MOLT-4
Malme-3M = system: Malme-3M
NCI-H226 = system: NCI-H226
NCI-H23 = system: NCI-H23
NCI-H460 = system: NCI-H460
NCI-H522 = system: NCI-H522
OVCAR-3 = system: OVCAR-3
OVCAR-4 = system: OVCAR-4
OVCAR-5 = system: OVCAR-5
OVCAR-8 = system: OVCAR-8
RPMI-8226 = system: RPMI-8226
RXF 393 = system: RXF 393
RXF 631 = system: RXF 631
SF-268 = system: SF-268
SF-295 = system: SF-295
SF-539 = system: SF-539
SK-MEL-28 = system: SK-MEL-28
SK-MEL-2 = system: SK-MEL-2
SK-MEL-5 = system: SK-MEL-5
SK-OV-3 = system: SK-OV-3
SN12C = system: SN12C
SNB-19 = system: SNB-19
SNB-75 = system: SNB-75
SNB-78 = system: SNB-78
SR = system: SR
SW-620 = system: SW-620
TK-10 = system: TK-10
U-251 = system: U-251
UACC-257 = system: UACC-257
UO-31 = system: UO-31
XF498 = system: XF498
A498 = system: A498
HOP-18 = system: HOP-18
UACC-62 = system: UACC-62

## Cc1c2ccncc2c(C)c2c1[nH]c1ccc(OCC(F)(F)F)cc12
786-0
  GI50: 1.47 µM (inactive)
A549
  GI50: 1.79 µM (inactive)
ACHN
  GI50: 1.55 µM (inactive)
CAKI-1
  GI50: 2.11 µM (inactive)
CCRF-CEM
  GI50: 1.21 µM (inactive)
COLO 205
  GI50: 1.55 µM (inactive)
DLD-1
  GI50: 1.57 µM (inactive)
DMS-114
  GI50: 1.84 µM (inactive)
DMS-273
  GI50: 0.82 µM (active)
EKVX
  GI50: 1.61 µM (inactive)
HCT-116
  GI50: 1.08 µM (active)
HCT-15
  GI50: 1.05 µM
HL-60
  GI50: 2.08 µM (inactive)
HOP-62
  GI50: 1.63 µM (inactive)
HOP-92
  GI50: 2.23 µM (inactive)
HT-29
  GI50: 1.53 µM (inactive)
IGROV-1
  GI50: 1.61 µM (inactive)
K562
  GI50: 1.08 µM (active)
KM-20L2
  GI50: 1.47 µM (inactive)
KM12
  GI50: 1.36 µM (inactive)
LOX IMVI
  GI50: 1.61 µM (inactive)
LXFL 529
  GI50: 1.2 µM (inactive)
M14
  GI50: 1.96 µM (inactive)
M19-MEL
  GI50: 1.84 µM (inactive)
MOLT-4
  GI50: 0.824 µM (active)
Malme-3M
  GI50: 1.73 µM (inactive)
NCI-H226
  GI50: 1.83 µM (inactive)
NCI-H23
  GI50: 1.71 µM (inactive)
NCI-H460
  GI50: 1.18 µM (inactive)
NCI-H522
  GI50: 1.65 µM (inactive)
OVCAR-3
  GI50: 1.85 µM (inactive)
OVCAR-4
  GI50: 2.03 µM (inactive)
OVCAR-5
  GI50: 1.53 µM (inactive)
OVCAR-8
  GI50: 1.32 µM (inactive)
RPMI-8226
  GI50: 2.27 µM (inactive)
RXF 393
  GI50: 1.9 µM (inactive)
RXF 631
  GI50: 1.57 µM (inactive)
SF-268
  GI50: 1.55 µM (inactive)
SF-295
  GI50: 1.63 µM (inactive)
SF-539
  GI50: 1.75 µM (inactive)
SK-MEL-28
  GI50: 1.73 µM (inactive)
SK-MEL-2
  GI50: 1.58 µM (inactive)
SK-MEL-5
  GI50: 1.91 µM (inactive)
SK-OV-3
  GI50: 1.82 µM (inactive)
SN12C
  GI50: 1.37 µM (inactive)
SNB-19
  GI50: 1.64 µM (inactive)
SNB-75
  GI50: 2.17 µM (inactive)
SNB-78
  GI50: 2.92 µM (inactive)
SR
  GI50: 0.828 µM (active)
SW-620
  GI50: 0.619 µM (active)
TK-10
  GI50: 2.1 µM (inactive)
U-251
  GI50: 1.6 µM (inactive)
UACC-257
  GI50: 1.89 µM (inactive)
UO-31
  GI50: 1.73 µM (inactive)
XF498
  GI50: 1.61 µM (inactive)

## Cc1ccccc1C1=[N+]([O-])c2ccccc2C1=O
786-0
  GI50: 17.4 µM (inactive)
A498
  GI50: 83.8 µM (inactive)
A549
  GI50: > 10 µM (inactive)
ACHN
  GI50: 16.9 µM (inactive)
CCRF-CEM
  GI50: 18.5 µM (inactive)
COLO 205
  GI50: 15.7 µM (inactive)
DLD-1
  GI50: 17.3 µM (inactive)
DMS-114
  GI50: 13.4 µM (inactive)
EKVX
  GI50: 21 µM (inactive)
HCT-116
  GI50: 18.5 µM (inactive)
HCT-15
  GI50: 14.4 µM
HL-60
  GI50: 10.3 µM (inactive)
HOP-18
  GI50: 19.6 µM (inactive)
HOP-62
  GI50: 23.1 µM (inactive)
HOP-92
  GI50: 49.4 µM (inactive)
HT-29
  GI50: 14.5 µM (inactive)
IGROV-1
  GI50: 18.3 µM (inactive)
K562
  GI50: 20.9 µM (inactive)
KM-20L2
  GI50: 17.9 µM (inactive)
KM12
  GI50: 13.2 µM (inactive)
LOX IMVI
  GI50: 18.7 µM (inactive)
LXFL 529
  GI50: 14.9 µM (inactive)
M14
  GI50: 18.4 µM (inactive)
M19-MEL
  GI50: 15.2 µM (inactive)
MOLT-4
  GI50: 19 µM (inactive)
Malme-3M
  GI50: 18.4 µM (inactive)
NCI-H226
  GI50: 16.3 µM (inactive)
NCI-H23
  GI50: 20.3 µM (inactive)
NCI-H460
  GI50: 19.7 µM (inactive)
NCI-H522
  GI50: 15.2 µM (inactive)
OVCAR-3
  GI50: 12.7 µM (inactive)
OVCAR-5
  GI50: 27.6 µM (inactive)
OVCAR-8
  GI50: 16.7 µM (inactive)
RPMI-8226
  GI50: 39.2 µM (inactive)
RXF 393
  GI50: 21.9 µM (inactive)
RXF 631
  GI50: 23.6 µM (inactive)
SF-268
  GI50: 20.5 µM (inactive)
SF-295
  GI50: 23.7 µM (inactive)
SF-539
  GI50: 19.1 µM (inactive)
SK-MEL-28
  GI50: 20.7 µM (inactive)
SK-MEL-2
  GI50: 3.22 µM (inactive)
SK-MEL-5
  GI50: 16.8 µM (inactive)
SK-OV-3
  GI50: > 100 µM (inactive)
SN12C
  GI50: 17.7 µM (inactive)
SNB-19
  GI50: 46.1 µM (inactive)
SNB-75
  GI50: 20.2 µM (inactive)
SR
  GI50: 54.7 µM (inactive)
SW-620
  GI50: 26.4 µM (inactive)
TK-10
  GI50: 18.3 µM (inactive)
U-251
  GI50: 16.9 µM (inactive)
UACC-257
  GI50: 14.7 µM (inactive)
UACC-62
  GI50: 20.1 µM (inactive)
UO-31
  GI50: 19.1 µM (inactive)
XF498
  GI50: 17.4 µM (inactive)
